Results on 12 compounds are retold here after US8501804B2, “Bicyclic compound” (Takeda Pharmaceutical Company Limited, priority 2008, dated 2013).

Experiment [1] addresses T1, human ACC2 (Nd) (Homo sapiens, UniProt O00763).
T1 construct: His6 (from vector pFAST-BacHTa); made in house; host or cells: SF-9 insect cells, recombinant baculovirus BAC-ACC2 (Nd)
The experiment is described as follows: ACC2 inhibitory activity (malachite green). The format is biochemical. The following applies: test compound 10 μM; for inhibition at 10 µM: read-out: ACC2 10 μM inhibitory rate (%). Here is the method: The ACC2 inhibitory action of the compound of the present invention was evaluated by the following method.
(1) Cloning of Human ACC2 Gene and Preparation of Recombinant Baculovirus
Human ACC2 gene was cloned by PCR using a human skeletal muscle cDNA library (Clontech) as a template and Primer 1 and Primer 2 shown below. Primer 1 and Primer 2 were prepared by adding SalI, XbaI restriction enzyme recognition sequences based on the information of the base sequence of human ACC2 gene (Genbank Accession U89344).
PCR was performed using Pyrobest DNA polymerase (TAKARA BIO INC.). The obtained PCR product was cloned to pT7 Blue vector (Novagen) and, after confirmation of the base sequence, digested with restriction enzymes SalI and XbaI. The obtained DNA fragment was inserted into pFAST-BacHTa (Invitrogen) digested with restriction enzymes SalI and XbaI to give expression plasmid ACC2/pFAST-BacHTa.
A plasmid for expression of ACC2 without a mitochondrial targeting sequence was prepared by PCR using the expression plasmid as a template, and Primer 3 (SalI restriction enzyme recognition sequence was added) and Primer 4 prepared by reference to the information of human ACC2 gene base sequence (Genbank Accession U89344).
PCR was performed using Pyrobest-DNA polymerase (TAKARA BIO INC.). The obtained PCR product was cloned to pT7 Blue vector (Novagen) and, after confirmation of the base sequence, digested with restriction enzymes SalI and AflII. The obtained DNA fragment was inserted into ACC2/pFAST-BacHTa digested with restriction enzymes SalI and AflII to give expression plasmid ACC2mito7/pFAST-BacHTa.
Using the expression plasmid ACC2mito7/pFAST-BacHTa and BAC-TO-BAC Baculovirus Expression System (Invitrogen), virus stock BAC-ACC2 of recombinant Baculovirus (N terminal deleted (hereinafter Nd)) was prepared.
(2) Preparation of ACC2 (Nd) Protein
SF-9 cells (Invitrogen) were inoculated to a medium (2 L) for insect cells (Sf-900IISFM medium (Invitrogen) containing 10% fetal bovine serum (Trace), 50 mg/L Gentamicin (Invitrogen), 0.1% Pluronic F-68 (Invitrogen)) at 0.5×10^6 cells/mL, and cultured with shaking in Wave Bioreactor (Wave) at 27° C., 20 rpm, rocking angle 6°, oxygen concentration 30%.
On day 4 of the culture, 3 L of the medium for insect cells was added, the rocking angle was set to 8°, and the cells were cultured. On day 5 of the culture, 100 ml of recombinant Baculovirus BAC-ACC2 (Nd) was added, 5 L of the medium for insect cells was further added, the rocking angle was set to 11°, and the cells were cultured for 3 days. The culture medium was centrifuged at 1000×g for 10 min to give virus-infected cells. The cells were washed with phosphate buffered saline (Invitrogen) and centrifuged under the same conditions. The obtained cells were cryopreserved at −80° C.
The cryopreserved cells were thawed in ice and suspended in 900 ml of 25 mM HEPES buffer (pH 7.5) containing 10% Glycerol, 0.13 M NaCl, 1 mM EDTA, 25 mM Sodium β-Glycerophosphate and 1 mM Sodium Orthovanadate, and supplemented with Complete Protease Inhibitor (Nippon Boehringer Ingelheim Co., Ltd.). The obtained suspension was homogenized three times in a polytron homogenizer (Kinematica) at 20,000 rpm for 30 sec. The obtained cell disruption solution was clarified by centrifugation at 31000×g for 60 min, and filtered through a 0.45 μm filter. The filtrate was passed through a column packed with 60 mL of Ni-NTA Super Flow Gel (QUIAGEN) at a flow rate of about 5 mL/min. The column was washed with buffer A (50 mM HEPES (pH 7.5) containing 0.3 M NaCl), further washed with buffer A containing 20 mM Imidazole, and eluted with buffer A containing 100 mM Imidazole. The eluate was concentrated with Vivaspin 20 (Vivascience) with a molecular weight cut off of 30K. The obtained concentrate was dialyzed against 50 mM HEPES (pH 7.5) containing 10 mM MgCl2, 2 mM Dithiothreitol, 10 mM Tripotassium Citrate and 0.3 M NaCl. The inner dialysate was filtered through a 0.22 μm filter to give ACC2 (Nd). […]

The target of experiment [2] is T2, human ACC1 (Homo sapiens, UniProt Q13085).
T2 construct: His6 (from vector pFAST-BacHTc); made in house; host or cells: SF-9 insect cells, recombinant baculovirus BAC-ACC1
In words: ACC1 inhibitory activity (malachite green). It is filed as biochemical. The conditions noted are these: test compound 10 μM; for inhibition at 10 µM: read-out: ACC1 10 μM inhibitory rate (%). Here is the method:
The ACC1 inhibitory action of the compound of the present invention was evaluated by the following method.
(1) Cloning of Human ACC1 Gene and Preparation of Recombinant Baculovirus
Human ACC1 gene was cloned by PCR using a human liver cDNA library (Clontech) as a template and Primer 1 and Primer 2 shown below. Primer 1 and Primer 2 were prepared by adding SalI, NotI restriction enzyme recognition sequences based on the information of the base sequence of human ACC1 gene (Genbank Accession U19822).
PCR was performed using Pyrobest DNA polymerase (TAKARA BIO INC.). The obtained PCR product was cloned to pT7 Blue vector (Novagen) and, after confirmation of the base sequence, digested with restriction enzymes SalI and NotI. The obtained DNA fragment was inserted into pFAST-BacHTc (Invitrogen) digested with restriction enzymes SalI and NotI to give expression plasmid ACC1/pFAST-BacHTc.
Using the expression plasmid ACC1/pFAST-BacHTc and BAC-TO-BAC Baculovirus Expression System (Invitrogen), virus stock BAC-ACC1 of recombinant Baculovirus was prepared.
(2) Preparation of ACC1 Protein
SF-9 cells (Invitrogen) were inoculated to a medium (1 L) for insect cells (Sf-900IISFM medium (Invitrogen) containing 10% fetal bovine serum (Trace), 50 mg/L Gentamicin (Invitrogen), 0.1% Pluronic F-68 (Invitrogen)) at 1×10^6 cells/mL, and cultured with shaking in 2 L meyer at 27° C., 100 rpm.
After 24 hr of the culture, 10 mL of recombinant Baculovirus BAC-ACC1 was added, and the cells were cultured for 3 days. The culture medium was centrifuged at 1000×g for 5 min to give virus-infected cells. The cells were washed with phosphate buffered saline (Invitrogen) and centrifuged under the same conditions. The obtained cells were cryopreserved at −80° C.
The cryopreserved cells were thawed in ice and suspended in 100 mL of 25 mM HEPES buffer (pH 7.5) containing 10% Glycerol, 0.13 M NaCl, 1 mM EDTA, 25 mM Sodium […] and 1 mM Sodium Orthovanadate, and supplemented with Complete Protease Inhibitor (Nippon Boehringer Ingelheim Co., Ltd.). The obtained suspension was homogenized three times in a polytron homogenizer (Kinematica) at 20,000 rpm for 30 sec. The obtained cell disruption solution was clarified by centrifugation at 185700×g for 50 min, and filtered through a 0.45 μm filter. The filtrate was passed through a column packed with 12 ml of Ni-NTA Super Flow Gel (QUIAGEN) at a flow rate of about 5 mL/min. The column was washed with buffer A (50 mM HEPES (pH 7.5) containing 0.3 M NaCl), further washed with buffer A containing 20 mM Imidazole, and eluted with buffer A containing 100 mM Imidazole. The eluate was concentrated with Vivaspin 20 (Vivascience) with a molecular weight cut off of 30K. The obtained concentrate was dialyzed against Sephadex G-25 (Amersham Biosciences, 358 mL) equilibrated with 50 mM HEPES (pH 7.5) containing 10 mM MgCl2, 2 mM Dithiothreitol, 10 mM Tripotassium Citrate and 0.3 M NaCl. The inner dialysate was concentrated with Vivaspin 20 (Vivascience) with molecular weight cut off of 30K, and concentrate was filtered through a 0.22 μm filter to give ACC1. The obtained ACC1 was cryopreserved at −80° C.
(3) Measurement of ACC1 Inhibitory Activity
ACC1 (0.93 mg/ml) obtained in the above-mentioned (2) was diluted with an enzyme reaction buffer (50 mM HEPES (pH 7.5), 10 mM MgCl2, 10 mM Tripotassium Citrate, 2 mM Dithiothreitol, 0.75 mg/ml Fatty acid free BSA) to a concentration of 8 μg/ml, and the mixture was added to each well of a 384 well assay plate (Nunc 265196) by 10 μl. A test compound was dissolved in dimethyl sulfoxide (DMSO) and the mixture was diluted with an enzyme reaction buffer and the resulting solution (5 μl) was added to each well. The mixture was incubated at 30° C. for 60 min. Then, a substrate solution (50 mM KHCO3, 200 μM ATP, 200 μM Acetyl-CoA, 5 μl) was added to each well, and the mixture was reacted at 30° C. for 20 min (test compound addition group). […]

T1 sequence (O00763 117-2458 limits assumed): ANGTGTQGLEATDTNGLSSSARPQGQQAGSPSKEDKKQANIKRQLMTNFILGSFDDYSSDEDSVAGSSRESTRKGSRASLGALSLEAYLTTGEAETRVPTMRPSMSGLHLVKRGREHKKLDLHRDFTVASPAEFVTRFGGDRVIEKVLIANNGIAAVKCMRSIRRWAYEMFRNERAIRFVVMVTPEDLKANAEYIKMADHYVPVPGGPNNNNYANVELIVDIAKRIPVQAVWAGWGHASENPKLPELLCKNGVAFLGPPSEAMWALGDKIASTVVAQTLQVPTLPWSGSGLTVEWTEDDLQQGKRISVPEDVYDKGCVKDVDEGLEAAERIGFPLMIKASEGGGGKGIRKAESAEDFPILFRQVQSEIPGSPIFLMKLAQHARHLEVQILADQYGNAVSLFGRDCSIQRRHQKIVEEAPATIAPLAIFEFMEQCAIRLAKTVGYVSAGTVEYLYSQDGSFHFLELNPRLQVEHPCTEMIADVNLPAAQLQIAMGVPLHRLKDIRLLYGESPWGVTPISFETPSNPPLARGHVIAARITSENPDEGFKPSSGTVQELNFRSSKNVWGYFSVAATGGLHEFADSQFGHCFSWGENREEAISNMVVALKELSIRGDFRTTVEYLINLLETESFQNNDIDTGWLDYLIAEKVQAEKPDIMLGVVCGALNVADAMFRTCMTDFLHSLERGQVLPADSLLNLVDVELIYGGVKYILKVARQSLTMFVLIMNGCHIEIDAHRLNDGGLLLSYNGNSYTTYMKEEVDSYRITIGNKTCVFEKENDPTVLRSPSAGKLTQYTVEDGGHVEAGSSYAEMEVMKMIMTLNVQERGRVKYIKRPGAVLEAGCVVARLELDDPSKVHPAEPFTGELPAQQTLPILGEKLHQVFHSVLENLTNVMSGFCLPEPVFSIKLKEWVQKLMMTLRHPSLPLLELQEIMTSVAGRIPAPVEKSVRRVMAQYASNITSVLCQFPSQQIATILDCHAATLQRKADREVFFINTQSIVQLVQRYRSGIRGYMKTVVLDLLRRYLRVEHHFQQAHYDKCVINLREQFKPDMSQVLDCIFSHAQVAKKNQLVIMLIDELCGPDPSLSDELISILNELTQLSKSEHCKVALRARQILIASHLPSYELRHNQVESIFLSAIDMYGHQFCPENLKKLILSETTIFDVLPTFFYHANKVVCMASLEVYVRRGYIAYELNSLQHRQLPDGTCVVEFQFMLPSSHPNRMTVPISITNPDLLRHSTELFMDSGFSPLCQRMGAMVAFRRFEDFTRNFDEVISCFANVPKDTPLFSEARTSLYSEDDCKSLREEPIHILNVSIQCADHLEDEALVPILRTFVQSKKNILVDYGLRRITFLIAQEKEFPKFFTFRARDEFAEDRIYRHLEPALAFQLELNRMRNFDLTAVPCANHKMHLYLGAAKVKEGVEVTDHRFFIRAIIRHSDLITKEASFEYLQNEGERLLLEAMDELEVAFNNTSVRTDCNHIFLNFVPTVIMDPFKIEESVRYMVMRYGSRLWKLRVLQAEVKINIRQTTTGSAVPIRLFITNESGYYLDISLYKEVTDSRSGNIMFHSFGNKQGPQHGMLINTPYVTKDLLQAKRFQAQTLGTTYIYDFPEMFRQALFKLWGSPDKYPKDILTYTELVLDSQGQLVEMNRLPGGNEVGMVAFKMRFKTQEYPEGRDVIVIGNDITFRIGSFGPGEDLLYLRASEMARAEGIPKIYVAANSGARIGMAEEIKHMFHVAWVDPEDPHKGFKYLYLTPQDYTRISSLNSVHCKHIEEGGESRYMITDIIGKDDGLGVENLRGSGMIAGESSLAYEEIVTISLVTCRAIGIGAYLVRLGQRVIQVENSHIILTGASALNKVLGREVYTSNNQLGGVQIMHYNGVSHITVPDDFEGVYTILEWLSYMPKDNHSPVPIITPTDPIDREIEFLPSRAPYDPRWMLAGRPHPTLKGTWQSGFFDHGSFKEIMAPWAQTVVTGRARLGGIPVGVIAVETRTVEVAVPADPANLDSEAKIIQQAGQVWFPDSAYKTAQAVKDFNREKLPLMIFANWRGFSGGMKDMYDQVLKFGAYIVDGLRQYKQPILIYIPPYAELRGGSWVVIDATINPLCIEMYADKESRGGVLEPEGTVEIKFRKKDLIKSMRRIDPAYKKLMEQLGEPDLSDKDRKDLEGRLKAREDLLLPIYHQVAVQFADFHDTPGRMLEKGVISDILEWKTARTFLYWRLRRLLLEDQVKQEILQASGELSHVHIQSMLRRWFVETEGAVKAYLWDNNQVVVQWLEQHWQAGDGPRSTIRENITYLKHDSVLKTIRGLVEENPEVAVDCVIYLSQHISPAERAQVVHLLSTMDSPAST

Consider `CCOc1ccc(OCc2ccc3sc(C(C)NC(C)=O)nc3c2)cc1` (stereo not drawn) [Example 37, N-(1-{5-[(4-ethoxyphenoxy)methyl]-1,3-benzothiazol-2-30 yl}ethyl)acetamide], for which the inhibition at 10 µM was 77% in experiment [1] and -4% in experiment [2].

Regarding `CC(=O)N[C@@H](C)[C@@H]1Cc2ccc(OCc3ccc(OC[C@@H]4CCCO4)cc3F)cc2O1` [Example 146, N-{(1S)-1-[(2S)-6-({2-fluoro-4-[(2S)-tetrahydrofuran-2-ylmethoxy]benzyl}oxy)-2,3-dihydro-1-benzofuran-2-yl]ethyl}acetamide], the inhibition at 10 µM stood at 84% in experiment [1] and 40% in experiment [2].

For the compound `CCOc1ccc(CCc2ccc3cc(C(C)NC(C)=O)oc3c2)cc1` (stereo not drawn) [Example 190 (retention time longer), N-(1-{6-[2-(4-ethoxyphenyl)ethyl]-1-benzofuran-2-yl}ethyl)acetamide], the figures for the inhibition at 10 µM in experiment [1] and in experiment [2] were 79% and 29%, respectively.

`CC(=O)N[C@H](C)[C@H]1Cc2ccc(CCc3ccc(OCC4CC4)cc3)cc2O1` (racemic) [Example 121, 1:1 mixture of N-{(1R)-1-[(2R)-6-{2-[4-(cyclopropylmethoxy)phenyl]ethyl}-2,3-dihydro-1-benzofuran-2-yl]ethyl}acetamide and N-{(1S)-1-[(2S)-6-{2-[4-(cyclopropylmethoxy)phenyl]ethyl}-2,3-dihydro-1-benzofuran-2-yl]ethyl}acetamide]: the results for the inhibition at 10 µM in experiment [1] and in experiment [2] were 73% and 35%, respectively.

With `CCCCOc1ccc(CCc2ccc3cc(C(C)NC(C)=O)oc3c2)cc1` (stereo not drawn) [Example 44, N-(1-{6-[2-(4-butoxyphenyl)ethyl]-1-benzofuran-2-yl}ethyl)acetamide], the values for the inhibition at 10 µM in experiment [1] and in experiment [2] were 78% and 35%, respectively.

Turning to `CCOc1ccc(CCc2cc3oc(C(C)NC(C)=O)cc3cn2)cc1` (stereo not drawn) [Example 135, N-(1-{6-[2-(4-ethoxyphenyl)ethyl]furo[3,2-c]pyridin-2-yl}ethyl)acetamide], the figures for the inhibition at 10 µM in experiment [1] and in experiment [2] were 81% and 14%, respectively.

As for `COCOc1ccc(CCc2ccc3cc(C(C)NC(C)=O)oc3c2)cc1` (stereo not drawn) [Example 95, N-[1-(6-{2-[4-(methoxymethoxy)phenyl]ethyl}-1-benzofuran-2-yl)ethyl]acetamide], the inhibition at 10 µM was 80% in experiment [1] and 43% in experiment [2].

With `CSCCOc1ccc(CCc2ccc3cc(C(C)NC(C)=O)oc3c2)cc1` (stereo not drawn) [Example 169, N-{1-[6-(2-{4-[2-(methylsulfanyl)ethoxy]phenyl}ethyl)-1-benzofuran-2-yl]ethyl}acetamide], the inhibition at 10 µM in experiment [1] stood at 75%; in experiment [2] it was 23%.

For `CCCOc1ccc(CCc2ccc3cc(C(C)NC(C)=O)oc3c2)cc1` (stereo not drawn) [Example 32, N-(1-{6-[2-(4-propoxyphenyl)ethyl]-1-benzofuran-2-yl}ethyl)acetamide], the values for the inhibition at 10 µM in experiment [1] and in experiment [2] were 84% and 36%, respectively.

In the case of `CCOc1ccc(CCc2ccc3cc(C(C)NC(C)=O)oc3c2)cc1` (stereo not drawn) [Example 20, N-(1-{6-[2-(4-ethoxyphenyl)ethyl]-1-benzofuran-2-yl}ethyl)acetamide], the “ACC2 10 μM inhibitory rate (%)” value in experiment [1] worked out at 83%. In addition, the “ACC1 10 μM inhibitory rate (%)” value in experiment [2] is listed as 23%.

Take `CC(=O)NC(C)C1Cc2cc(OCc3ccc(OCC4CC4)cc3F)ccc2O1` (stereo not drawn) [Example 140, N-[1-(5-{[4-(cyclopropylmethoxy)-2-fluorobenzyl]oxy}-2,3-dihydro-1-benzofuran-2-yl)ethyl]acetamide]: the “ACC2 10 μM inhibitory rate (%)” value in experiment [1] came out at 66%. Also, the “ACC1 10 μM inhibitory rate (%)” value in experiment [2] came to 20%.

Turning to `CCOc1ccc(COc2ccc3oc(C(C)NC(C)=O)cc3c2)c(F)c1` (stereo not drawn) [Example 48, N-(1-{5-[(2-fluoro-4-ethoxybenzyl)oxy]-1-benzofuran-2-yl}ethyl)acetamide], the inhibition at 10 µM in experiment [1] came out at 78%; in experiment [2] it was 10%.
